pIC50: −log10 of the molar value.
Target: T1, Papain (Carica papaya, UniProt P00784)
T1 sequence (P00784 whole entry): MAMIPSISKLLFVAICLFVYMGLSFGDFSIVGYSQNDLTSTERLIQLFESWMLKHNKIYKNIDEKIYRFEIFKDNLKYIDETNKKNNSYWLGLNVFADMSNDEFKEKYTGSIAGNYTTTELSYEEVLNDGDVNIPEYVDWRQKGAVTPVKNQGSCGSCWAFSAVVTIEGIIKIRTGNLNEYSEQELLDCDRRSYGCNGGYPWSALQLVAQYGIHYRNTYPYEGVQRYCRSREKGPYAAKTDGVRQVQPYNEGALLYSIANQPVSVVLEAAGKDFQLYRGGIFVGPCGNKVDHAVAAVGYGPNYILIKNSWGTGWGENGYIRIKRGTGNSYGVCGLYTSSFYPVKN
Experiment: Inhibition of papaya papain using Z-Phe-Arg-pNA substrate by spectrophotometry

Row | SMILES | pIC50
1 | CC(C)C[C@H](NC(=O)CN=[N+]=[N-])C(=O)N[C@@H](CC(C)C)C(=O)NCC#N | 5.57
2 | N#CCNC(=O)[C@H](Cc1ccccc1)NC(=O)c1ccccc1 | 6.44
3 | N#CCNC(=O)[C@H](Cc1ccccc1)NC(=O)[C@H](Cc1ccccc1)NC(=O)CN=[N+]=[N-] | 5.40
4 | N#CCNC(=O)[C@H](Cc1ccc(O)cc1)NC(=O)c1ccc(CN=[N+]=[N-])cc1 | 6.55
5 | CC(C)C[C@H](NC(=O)c1ccc(-c2ccc(CN=[N+]=[N-])cc2)cc1)C(=O)NCC#N | 5.80
6 | N#CCNC(=O)[C@H](Cc1ccc(O)cc1)NC(=O)c1ccc(-c2ccc(CN=[N+]=[N-])cc2)cc1 | 4.29
7 | N#CCNC(=O)[C@H](Cc1ccccc1)NC(=O)c1ccc(-c2ccccc2)cc1 | 6.66
8 | N#CCNC(=O)[C@H](CCc1ccccc1)NC(=O)c1ccc(CN=[N+]=[N-])cc1 | 6.15
9 | N#CCNC(=O)[C@H](Cc1ccccc1)NC(=O)c1ccc(CN=[N+]=[N-])cc1 | 6.57
10 | N#CCNC(=O)[C@H](CCc1ccc(O)cc1)NC(=O)c1ccc(CN=[N+]=[N-])cc1 | 6.01
11 | N#CCNC(=O)[C@H](Cc1ccccc1)NC(=O)c1ccc(Cn2nnc3c2CC[C@H]2[C@@H](CC3)[C@H]2COC(=O)NCCOCCOCCN)cc1 | 6.46
12 | N#CCNC(=O)[C@H](Cc1ccccc1)NC(=O)c1ccc(-c2ccc(CN=[N+]=[N-])cc2)cc1 | 4.86
13 | CCCC[C@H](NC(=O)c1ccc(CN=[N+]=[N-])cc1)C(=O)NCC#N | 5.15
14 | CC(C)C[C@H](NC(=O)c1ccc(CN=[N+]=[N-])cc1)C(=O)NCC#N | 5.64
15 | N#CCNC(=O)[C@H](Cc1ccccc1)NC(=O)c1ccc(Cn2nnc3c2-c2ccccc2CN(C(=O)CCCC(=O)NCCOCCOCCN)c2ccccc2-3)cc1 | 5.22
16 | CC(C)C[C@H](NC(=O)CN=[N+]=[N-])C(=O)N[C@@H](Cc1ccccc1)C(=O)NCC#N | 5.65

Source: ChEMBL document CHEMBL3351912, “Influence of azide incorporation on binding affinity by small papain inhibitors” (Bioorg Med Chem, 2014)
